{
  "source": "patent US20260132165A1",
  "about": "“MODIFIED NUCLEOSIDE ANALOGUE AND USE THEREOF, AND NUCLEOSIDE ANALOGUE-CONTAINING DOUBLE-STRANDED OLIGONUCLEOTIDE AND USE THEREOF” (RIGERNA THERAPEUTICS (BEIJING) CO., LTD., priority 2023, published 2026)",
  "key": {"[1]": {"system": "target gene SOD1", "assay": "Test Example 5: inhibitory activity of lipid conjugated siRNA sequences on SOD1 by intrathecal administration to rats", "type": "in vivo, SD rats", "design": "key to Lumbar segmen Mean value of inhibition rate / Cortex Mean value of inhibition rate / Thoracic segment Mean value of inhibition rate / Cervical segment Mean value of inhibition rate / Cerebellum Mean value of inhibition rate / Hippocampus Mean value of inhibition rate: inhibition rate of SOD1 mRNA, calculated by the ΔΔCt method", "conditions": "D7", "description": "6-8 Week-old SD rats were randomly grouped by body weight. Rats in each group were administered with siRNA by intrathecal administration, with an administration dose of 900 μg per rat. Injection was administered from rat spinal cord L5-L6, with an administration volume of 40 μL. Needle was retained for 2 min after completion of injection, and then slowly withdrawn. PBS control group was administered with the same volume of siRNA conjugate-free PBS solution. The day of administration was recorded as 0 day (D0), and the rats were sacrificed at observation point after administration. Different segments of spinal cord and different regions of brain were respectively taken and stored in the RNAlater.\n(§1) RNA extraction: the above tissue samples were taken out from the RNAlater, and smashed for 60 s in Tissuelyser type II full-automatic tissue homogenizer, and total RNAs of various tissue samples were extracted using the full-automatic nucleic acid extraction instrument and the nucleic acid extraction kit from Zhejiang Hanwei Science and Technology Co. Ltd. according to methods described in instructions.\n(§2) Reverse transcription reaction: 1 μg of the extracted total RNAs of the tissue samples were taken, and configured into 20 μL of reverse transcription system according to a method described in kit instructions by using a reverse transcription kit (Reverse Transcription System, A3500) from Promega Corporation and selecting Oligo (dT)15 reverse transcription primers, and the reverse transcription reaction was completed. After the reaction was ended, 80 μL of RNase-Free water was added into the reverse transcription system to provide cDNA solution for Real-time PCR detection.\n(§3) Real-time PCR detection: 20 μL of Real-time PCR reaction system per PCR detection well was configured according to a method described in kit instructions using SYBR™ Select Master Mix (Catalog number: 4472908) reagent from ABI company. Each detection system contained 5 μL of cDNA template obtained from the above reverse transcription reaction, 10 μL of SYBR™ Select Master Mix, 0.5 μL of 10 μM upstream primers, 0.5 μL of 10 μM downstream primers, and 4 μL of RNase-Free H2O. The configured reaction system was subjected to Real-time PCR amplification on ABI StepOnePlus PCR instrument by a three-step method, wherein an amplification procedure was pre-denaturation at 95° C. for 10 min, then denaturation at 95° C. for 30 s, annealing at 60° C. for 30 s, and extension at 72° C. for 30 s; and processes of denaturation, annealing, and extension were repeated for 40 cycles. Gene expression differences were calculated by the ΔΔCt method after completion of the procedure.\nIn the real-time fluorescence quantitative PCR method, relative quantitative calculation of remaining expression level and inhibition rate of gene mRNA of interest in various test groups was performed by the ΔΔCt method, and the calculation method is as follows:\nThe present example evaluated, by an evaluation method for inhibitory activity on a target gene by intrathecal administration to rats, the inhibitory activity of siRNA sequence RZ899060 with the sense strand with the NM031 conjugation at Position 4 and vector-free siRNA sequence RZ899056, and Uhd conjugated siRNA reference sequence RZ899055 on the target gene SOD1 of interest in spinal cord and brain of rats.\n6-8 Week-old SD rats were randomly grouped by body weight, 5 per group, 4 groups in total. Rats in each group were dosed with the above siRNA conjugates by intrathecal administration, with an administration dose of 900 μg per rat, and an administration volume of 40 μL. PBS control group was administered with the same volume of siRNA conjugate-free PBS solution. The day of administration was recorded as 0 day (D0), and the rats were sacrificed on D7 after administration. […]"}, "[2]": {"system": "target gene SOD1", "assay": "Test Example 3: inhibitory activity of lipid conjugated siRNA sequences on SOD1 by lateral ventricle administration to mice", "type": "in vivo, C57BL/6j mice", "conditions": "200 μg per mouse, D5", "description": "6-8 Week-old C57BL/6j mice were randomly grouped by body weight. Mice in each group were administered with siRNA by lateral ventricle administration, with an administration dose per mouse depending on a specific test. Taking Bregma in mouse brain as point 0 (origin), coordinates of right ventricle were found using the cerebral stereotaxic apparatus and position was marked on surface of skull (position of lateral ventricle was AP (anteroposterior, bregma anterior and posterior): −0.58 mm, ML (mediolateral, left and right of middle raphe): −1.2 mm, DV (dorsoventral, up and down cerebral dura mater plane): −2.2 mm). A dental electric drill was used to drill in the skull above a position of interest, and then medicament was injected into the lateral ventricle by a micro-dosing pump, wherein a total injection volume was 5 μL, and injection duration was 10 min. Needle was retained for 5 min after completion of injection, and then slowly withdrawn. Afterwards, needle hole was sealed with biomedical glue, and then head skin was adhered. After animals woke up, the animals were returned back to animal house and further fed. PBS control group was administered with the same volume of siRNA-free PBS solution. The day of administration was recorded as 0 day (D0), and the mice were sacrificed at observation point after the administration. Different parts of brain region were respectively taken and stored in the RNAlater.\nas §1, §2, §3\nIn the real-time fluorescence quantitative PCR method, relative quantitative calculation of remaining expression level and inhibition rate of gene mRNA of interest in various test groups was performed by the ΔΔCt method, and the calculation method is as follows: […]"}},
  "note": "Several values for one entry are separate records, joined by “and”; a condition that tells them apart may be missing. Identical values can stand only once. Strand notation (5' to 3'): a small letter for the sugar, then the base; units joined by * are phosphorothioate-linked, units joined directly phosphodiester-linked; [ ] holds rarer units or linkages, { } end groups; capitals alone tell only the bases. [NM031] = nucleoside analogue NM031 of the disclosure, C16 lipid conjugate (uridine-based); {VP} = (thio)vinylphosphonate on the antisense 5' nucleotide, as listed; m = 2'-O-methyl; f = 2'-fluoro",
  "data": [
    {"substance": "RZ899060: siRNA sequence with the sense strand with the NM031 conjugation at Position 4; SEQ ID NO: 3 / 22 (sense mU*mU*mU[NM031]mAmAfUfCfCmUmCmAmCmUmCmUmAmAmA; antisense {VP}-mU*fU*mUmAmGfAmGmUmGmAmGmGmAfUmUfAmAmAmA*mU*mG)", "values": [
      {"measurement": "Cerebellum Mean value of inhibition rate", "setting": "[1]; cerebellum, intrathecal, 900 μg per rat", "result": 55.10},
      {"measurement": "Cortex Mean value of inhibition rate", "setting": "[1]; cerebral cortex, intrathecal, 900 μg per rat", "result": 43.00},
      {"measurement": "activity compared with the reference sequence RZ899055", "setting": "[1]; hippocampus and cortex in the brain region, intrathecal 900 μg per rat", "result": "substantially comparable"},
      {"measurement": "Hippocampus Mean value of inhibition rate", "setting": "[1]; hippocampus, intrathecal, 900 μg per rat", "result": 47.77},
      {"measurement": "activity compared with the Uhd conjugated reference sequence RZ899055", "setting": "[1]; lumbar segment, intrathecal 900 μg per rat", "result": "substantially comparable"},
      {"measurement": "inhibitory activity in the spinal cord segments", "setting": "[1]; lumbar, thoracic and cervical segment, intrathecal 900 μg per rat", "result": "≥ 80", "unit": "%"},
      {"measurement": "Cervical segment Mean value of inhibition rate", "setting": "[1]; spinal cord cervical segment, intrathecal, 900 μg per rat", "result": 83.37},
      {"measurement": "Lumbar segmen Mean value of inhibition rate", "setting": "[1]; spinal cord lumbar segment, intrathecal, 900 μg per rat", "result": 84.24},
      {"measurement": "Thoracic segment Mean value of inhibition rate", "setting": "[1]; spinal cord thoracic segment, intrathecal, 900 μg per rat", "result": 94.54},
      {"measurement": "activity compared with the Uhd conjugated reference sequence RZ899055", "setting": "[1]; thoracic segment and cervical segment of spinal cord, intrathecal 900 μg per rat", "result": "superior"},
      {"measurement": "Cerebellum Mean value of inhibition rate %", "setting": "[2]; cerebellum", "result": 56.11, "unit": "%"},
      {"measurement": "Cortex Mean value of inhibition rate %", "setting": "[2]; cortex", "result": 79.05, "unit": "%"},
      {"measurement": "Hippocampus Mean value of inhibition rate %", "setting": "[2]; hippocampus", "result": "≥ 90% and 90.98%"}
    ]}
  ]
}
